Test results: patent publication US12090189B2, “Polypeptide inhibitor of de novo lipogenesis in cancer cells” (University of Florida Research Foundation, Inc., priority 2018, dated 2024)
Ends that are not written are not given here.

Assays:
[1] = system: protein levels of ACC1, FAS and ACSS2; assay: Immunoblotting of MDA-MB-231-derived cells treated with mTOR inhibitor; type: cell-based, human; conditions: serum-starved 24 h, 0.1 μM for 5 h; for protein levels of ACC1, FAS and ACSS2: control or S671A-expressing cells
Description: FIGS. 6A to 6H show mutation of DAXX phosphorylation sites disrupts DAXX-SREBP2 interaction, impairs lipogenesis and tumor growth. […] The GFP-wt DAXX was transfected alone in the absence of FLAG-SREBP2 as a control (lane 7). The lysates of transfected cells were subjected to IP with an anti-FLAG antibody. Both DAXX and FLAG-SREBP2 were detected in immunoprecipitates and input lysates. […] The precipitated DNAs were subjected to qPCR with primers specific to promoter regions of the indicated genes. qPCRs for the 3′ UTR of the FASN and ACACA genes serve as negative control. […] ATRX qRT-PCR serves as a control for genes not regulated by SREBPs. […] Cells were serum-starved for 24 h. DMSO or a mTOR inhibitor (0.1 μM final concentration) was added for 5 h before cell lysis. […] RNAs were isolated from cells cultured in serum-free DMEM for 24 h as in FIG. 6D.
For immunoblotting analyses of cell lysates of monolayer cultures, medium was removed from culture plates and 1× Passive Lysis buffer (Promega) was added. The plates were frozen at −80° C. overnight and then thawed at room temperature. The lysates were transferred to a centrifuge tube. To prepare tumor lysates, xenograft tumor tissues were fragmented in the presence of liquid nitrogen, approximately 50 mg of tumor fragment was homogenized in 1 mL of 1× RIPA lysis buffer on ice using a micro-homogenizer. After brief sonication at a low power output for 5 sec on ice, the lysates were cleared by centrifugation at 13,000 rpm for 15 min at 4° C. Protein contents were quantified using a Qubit protein assay kit. Protein extracts from cell culture or tumor lysates were subjected to SDS-PAGE and electro-blotting as above.

[2] = Tolerability in tumor-bearing mice (body weights); type: in vivo; conditions: 25 mg/kg i.p. daily weekdays
Method: FIGS. 7A to 7E show the DAXX SIM2 peptide disrupts DAXX-SREBP interaction and suppresses tumor growth in vivo. […] The immunoprecipitates, input and supernatants were analyzed by immunoblotting. […] Mice were dosed i.p. daily weekdays for three weeks with vehicle or SIM2 (25 mg/kg). Longitudinal tumor volumes, mouse body weights, and endpoint tumor weights and images are shown. […] Protein extracts from three representative MDA-MB-231 xenograft tumors in vehicle and SIM2-treated mice were subjected to immunoblotting. HSP60 was detected as a loading control. […] Mice were dosed as in FIG. 7B. Longitudinal tumor volumes, mouse body weights, and endpoint tumor weights and tumor images are shown. […] Shown are a plot of a principal component analysis of lipid molecules detected by LC/MS, a heatmap of top lipid species, and bar graphs of relative abundance of the indicated lipid molecules. […] The p values were calculated based on Student's t-test. *: p<0.05; **: […].
For the in vivo SIM2 treatment study, MDA-MB-231 xenograft tumors were established as above and the mouse mammary tumor cell line 4T1 syngeneic tumors were established by transplanting one million cells in 100 μl of DMEM into mammary fat pads of female BALB/c mice. […] During the treatment, tumor dimensions and mouse body weights were recorded once weekly. […]

[3] = system: MDA-MB-231 and MDA-MB-468 cells; assay: Cell internalization of TAMRA-SIM2 by microscopy; type: cell-based, human; conditions: TAMRA-SIM2 1 μM, 1 hour
Method: FIGS. 18A to 18I show SIM2 peptide blocks lipogenesis. […] MDA-MB-231 and MDA-MB-468 cells were exposed to TAMRA-SIM2 (1 μM) for 1 hour and visualized by microscopy. […] Fluorescence polarization assay was performed in the presence of TAMRA-SIM2 and increased concentrations of SUMO1. FIGS. 18C-18H show SIM2 blocks de novo lipogenesis in MDA-MB-231 control or DAXX OE (FIG. 18C), MDA-MB-468 (FIG. 18D), Hs578T (FIG. 18E), HCT116 (FIG. 18F), 4T1 (FIG. 18G), and CT26.CL25 (FIG. 18H). Serum-starved cells were not treated (control) or exposed to SIM2 (10 μM) and labeled with [^14C] acetate. The levels of labeled lipids were quantified. […] MDA-MB-231 control and DAXX OE cell lines were untreated (control) or treated with SIM2 (10 μM). At 24 h after treatment, RNA was isolated and subject to qRT-PCR. RNA levels were normalized against that of ACTB. The p values shown are based on t-test.

| Molecule | protein levels of ACC1, FAS and ACSS2 [1] | levels of ACC1 and FAS ([1]; cells expressing the S495A mutant) | tolerability in vivo [2] | internalization into cells [3] |
| --- | --- | --- | --- | --- |
| COc1ccc(-c2ccc3c(N4CCOC[C@@H]4C)nc(N4CCOC[C@@H]4C)nc3n2)cc1CO [AZD8055] | Neither of these inhibitors had obvious effects | – | – | – |
| CO[C@H]1C[C@@H]2CC[C@@H](C)[C@@](O)(O2)C(=O)C(=O)N2CCCC[C@H]2C(=O)O[C@H]([C@H](C)C[C@@H]2CC[C@@H](OC(=O)C(C)(CO)CO)[C@H](OC)C2)CC(=O)[C@H](C)/C=C(\C)[C@@H](O)[C@@H](OC)C(=O)[C@H](C)C[C@H](C)/C=C/C=C/C=C/1C [temsirolimus] | Neither of these inhibitors had obvious effects | reduced levels of both ACC1 and FAS | – | – |
| DPEEIIVLSDSD [SIM2, DPEEIIVLSDSD] | – | – | highly tolerated in vivo | spontaneously and rapidly internalized into cells |
